Patent EP0621773B1, “FORMULATION AND USE OF CAROTENOIDS IN TREATMENT OF CANCER” (BOARD OF REGENTS THE UNIVERSITY OF TEXAS SYSTEM, priority 1992, dated 1993)

Columns and labels:
M5076 = assay: In vitro sensitivity of M5076 cells to retinoic acid; type: cell-based
THP-1 cells = assay: Tumor formation of in vitro treated THP-1 cells injected subcutaneously into mice; type: in vivo; settings: cells treated in vitro for 72 hours, injected subcutaneously into male mice
tissue transglutaminase = assay: Induction of tissue transglutaminase activity in THP-1 cells (marker for monocytic cell differentiation); type: cell-based, human; settings: 0.3 µg/ml or 0.6 µg/ml, 24 hr
[1] = test system: human histiocytic cell line U-937; assay: Cell growth inhibition, 72 hr, 96 well microtiter plate; type: cell-based; settings: retinoic acid concentration of about 10 ug/ml
Experimental: (§1) Cells of the human monocytic cell line THP-1 and of the human histiocytic cell line U-937 were inoculated at about 20,000 cells per well in aliquots of eucaryotic cell culture medium contained in wells of a 96 well microtiter plate. The medium in various wells contained different amount of free RA or L-RA (DMPC:DMPG 7:3). The cells were incubated for 72 hr at 37°C and cell growth determined and compared to that of controls without any form of retinoic acid. […] At concentrations of less than 1 µg RA/ml, both preparations inhibited cell growth by over 90%.
Cells of the human histiocytic cell line U-937 were distributed and cultured under the same conditions as the THP-1 cells in the prior experiment. […] It should be noted that the U-937 cells were almost completely growth-inhibited by L-RA at a retinoic acid concentration of about 10 ug/ml while this amount of free RA inhibited growth less than 50%.

[2] = test system: human monocytic leukemia THP-1 cells; assay: Morphological change associated with cellular differentiation; type: cell-based; settings: 0.3 µg RA/ml, 72 hr incubation
Experimental: The generally ovate form was retained when the cells were cultured in the absence of any free or liposomal retinoic acid.

[3] = test system: human red blood cells (RBCs); assay: In vitro lysis of human erythrocytes (hemoglobin release, optical density at 550 nm); type: cell-based
Experimental: Lysis of human red blood cells (RBCs) was quantitated by measuring the release of hemoglobin in the supernatants by observation of increases in optical density at 550 nanometers (nm), as described previously (Mehta, et al., Biochem. Biophys, Acta., Vol. 770-, pp 230-234 (1984). Free-RA dissolved in dimethyl formamide (DMFA), was added to the RBCs. Results with appropriate solvent controls, empty liposomes, and empty liposomes plus free-drug were also noted. Release of hemoglobin by hypotonic lysis of the same number of human RBCs by water was taken as a 100% positive control, while cells treated with PBS were taken as negative controls.
Preparations of L-RA comprising various lipids were incubated at a concentration of 20 microgram (µg) RA per ml with RBCs in PBS for 4 hr at 37°C.
A further experiment concerning the toxicity over time of free RA and L-RA (DMPC:DMPG-7:3) toward RBC was conducted. Human erythrocytes were incubated at 37°C in PBS with 10 ug/ml free RA or 120 ug/ml L-RA, and RBC lysis monitored over a period of 5 hr. […] When a similar manipulation was performed with L-RA (DMPC:DMPG(7:3)) at a RA concentration of 120 ug/ml, little RBC lysis occurred (e.g., less than 10% after […]).
A study was also conducted concerning the effects upon RBC lysis in 2 hr of free RA and L-RA (DMPC:DMPG(7:3)) at various concentrations. […]

[4] = test system: human monocytic cell line THP-1; assay: Cell growth inhibition, 72 hr, 96 well microtiter plate; type: cell-based; settings: concentrations of less than 1 µg RA/ml, 72 hr at 37°C
Experimental: as §1

CD1 mice = assay: in vivo; settings: for Number Animals with seizures / Number Animals alive (72 hr): CD1, mouse, in vivo, iv
Experimental: (§2) The acute toxicity of free and liposomal all-trans retinoic acid was studied in CD1 mice. Free all-trans retinoic acid was prepared as an emulsion in normal saline containing 10% DMSO and 2% Tween 80 at a concentration of 3 to 5 mg/ml. Liposomal all-trans retinoic acid was prepared using a lipid:drug ratio of 15:1. The final concentration of all-trans retinoic acid in the liposomal preparation was 3 mg/ml. Empty liposomes of the same lipid composition (DMPC:DMPG 7:3) were also tested at doses equivalent to 80 mg/kg, 100 mg/kg, and 120 mg/kg of liposomal-all trans retinoic acid. Normal saline containing 10% DMSO and 2% Tween 80 was also tested as a control at a dose equivalent to 50 mg/kg of free all-trans retinoic acid. All drugs tested were injected intravenously via tail vein as a single bolus. The injected volumes of free and liposomal-all-trans retinoic acid were the same for each dose.

in vivo = settings: mouse, in vivo, iv
Experimental: as §2

## CC1=C(/C=C/C(C)=C/C=C/C(C)=C/C(=O)O)C(C)(C)CCC1 [Free RA, all-trans retinoic acid]
M5076
  sensitivity of M5076 cell line in in vitro studies: resistant
THP-1 cells
  tumor development of treated THP-1 cells in mice: failed to develop into tumors
Tissue transglutaminase
  tissue transglutaminase enzymic activity: increased levels of tissue transglutaminase enzymic activity
[1]
  inhibition at 10 µg/mL: < 50%
[2]
  morphological appearance of THP-1 cells: more flattened and spread morphological appearance
[3]; 10 ug/ml, 37°C in PBS, between about 1 hr and about 3 hr
  RBC lysis over time: extensively lysed a large majority of the erythrocytes
[3]; between about 5 ug RA/ml and about 30 ug RA/ml, 2 hr
  RBC lysis in 2 hr as a function of concentration: linearly increasing RBC lysis
[4]
  inhibition of THP-1 cell growth: over 90%
CD1 mice; 10 mg/kg
  Number Animals with seizures: 0/6
  Number Animals alive (72 hr): 6/6
CD1 mice; 20 mg/kg
  Number Animals with seizures: 6/6
  Number Animals alive (72 hr): 5/6
CD1 mice; 30 mg/kg
  Number Animals with seizures: 6/6
  Number Animals alive (72 hr): 4/6
CD1 mice; 40 mg/kg
  Number Animals with seizures: 3/3
  Number Animals alive (72 hr): 0/3
CD1 mice; 50 mg/kg
  Number Animals with seizures: 3/3
  Number Animals alive (72 hr): 0/3
CD1 mice; i.v. single bolus, CD1 mice
  maximum non-toxic dose: 10 mg/kg
In vivo
  LD50 at 72 h: 32 mg/kg
